Values of other authors, collected in US20240131064A1, “TREATMENT OF CANCER PATIENTS WITH TUMOR INFILTRATING LYMPHOCYTE THERAPIES IN COMBINATION WITH BRAF INHIBITORS AND/OR MEK INHIBITORS” (Iovance Biotherapeutics, Inc., priority 2020, published 2024).
Read-outs that look alike come from different tables or passages of the source.

Columns and labels:
[1] = tested on: BRAF V600E mutation-positive, unresectable or metastatic melanoma; conditions: 187 patients treated, no prior BRAF or MEK inhibitor
[2] = percent of patients

CC(C)(C)c1nc(-c2cccc(NS(=O)(=O)c3c(F)cccc3F)c2F)c(-c2ccnc(N)n2)s1 [dabrafenib]
median duration of response (DOR) [1]: 5.6 months

des-alanyl-1, serine-125 human IL-2 [aldesleukin]
overall objective response rate (ORR) (metastatic melanoma; high-dose aldesleukin, metastatic melanoma): 16% | durable complete tumor regressions (CRs) (metastatic melanoma; high-dose aldesleukin, treated patients with metastatic melanoma): up to 6%

ipilimumab: CTLA-4 inhibitor, heavy chain SEQ ID NO:208, light chain SEQ ID NO:209
Treatment-related adverse events leading to discontinuation of therapy [2]: 14.8%

nivolumab: PD-1 inhibitor, heavy chain SEQ ID NO:158, light chain SEQ ID NO:159
Treatment-related adverse events leading to discontinuation of therapy [2]: 7.7% | rate of durable responses relative to aldesleukin treatment (metastatic melanoma; metastatic melanoma): approximately double | ORR (metastatic melanoma; previously treated patients): 32%

pembrolizumab: PD-1 inhibitor, heavy chain SEQ ID NO:168, light chain SEQ ID NO:169
ORR (metastatic melanoma; following prior therapy with ipilimumab): 21% | rate of durable responses relative to aldesleukin treatment (metastatic melanoma; metastatic melanoma): approximately double
